Experiments:
[1] = biological target: neuronal nicotinic acetylcholine receptors (Rattus norvegicus, UniProt P09483+P12390); assay: [3H]-cytisine binding to neuronal nicotinic acetylcholine receptors, crude synaptic membranes from whole rat brain; conditions: [3H]-CYT 1.25 nM, 60 minutes at 4° C., K1 from IC50 by Cheng and Prusoff correction
Protocol: The in vitro protocols for determination of nicotinic acetylcholine channel receptor binding potencies of ligands was determined as follows.
Binding of [^3H]-cytisine ([^3H]-CYT) to neuronal nicotinic acetylcholine receptors was accomplished using crude synaptic membrane preparations from whole rat brain (Pabreza et al., Molecular Pharmacol., 1990, 39:9). Washed membranes were stored at −80° C. prior to use. Frozen aliquots were slowly thawed and resuspended in 20 volumes of buffer (containing: 120 mM NaCl, 5 mM KCl, 2 mM MgCl2, 2 mM CaCl2 and 50 mM Tris-Cl, pH 7.4 @4° C.). After centrifuging at 20,000×g for 15 minutes, the pellets were resuspended in 30 volumes of buffer.
The test compounds were dissolved in water to make 10 mM stock solutions.
Samples were incubated for 60 minutes at 4° C., then rapidly filtered through Whatman GF/B filters presoaked in 0.5% polyethyleneimine using 3×4 mL of ice-cold buffer. The filters are counted in 4 mL of Ecolume® (ICN). Nonspecific binding was determined in the presence of 10 μM (−)-nicotine and values were expressed as a percentage of total binding. IC50 values were determined with a four-parameter non-linear regression and IC50 values were converted to K1 values using the Cheng and Prusoff correction (K1=IC50/(1+[ligand]/Kd of ligand).
Each Example number corresponds to the synthetic Examples described above.

[2] = system: mice (hot plate paradigm); assay: mouse hot plate paradigm (analgesia, tenth jump latency); assay type: in vivo; conditions: footnote symbols: no significant effect at the stated dose, intraperitoneal, 30 minutes prior to testing, hot plate 55° C.
Protocol: An in vivo protocol was utilized to determine the effectiveness of nicotinic acetylcholine receptor ligands as analgesic agents in the mouse hot plate paradigm.
Separate groups of mice, (n=8/group) were utilized for each dose group. All drugs were administered by the intraperitoneal route of administration. Test drugs were dissolved in water to make a 6.2 mM stock solution. Animals were dosed with this solution (10 mL/kg body weight) for a 62 micromol/kg dose. Lower doses were administered similarly, following serial dilution of the stock solution in half-log increments. Animals were dosed 30 minutes prior to testing in the hot plate. The hot-plate utilized was an automated analgesia monitor (Model #AHP16AN, Omnitech Electronics, Inc. of Columbus, Ohio). The temperature of the hot plate was maintained at 55° C. and a cut-off time of 180 seconds was utilized. A control was run against each compound tested. Latency until the tenth jump was recorded as the dependent measure. An increase in the tenth jump latency relative to the control was considered a significant effect.

Sequence of neuronal nicotinic acetylcholine receptors (P09483 31-630): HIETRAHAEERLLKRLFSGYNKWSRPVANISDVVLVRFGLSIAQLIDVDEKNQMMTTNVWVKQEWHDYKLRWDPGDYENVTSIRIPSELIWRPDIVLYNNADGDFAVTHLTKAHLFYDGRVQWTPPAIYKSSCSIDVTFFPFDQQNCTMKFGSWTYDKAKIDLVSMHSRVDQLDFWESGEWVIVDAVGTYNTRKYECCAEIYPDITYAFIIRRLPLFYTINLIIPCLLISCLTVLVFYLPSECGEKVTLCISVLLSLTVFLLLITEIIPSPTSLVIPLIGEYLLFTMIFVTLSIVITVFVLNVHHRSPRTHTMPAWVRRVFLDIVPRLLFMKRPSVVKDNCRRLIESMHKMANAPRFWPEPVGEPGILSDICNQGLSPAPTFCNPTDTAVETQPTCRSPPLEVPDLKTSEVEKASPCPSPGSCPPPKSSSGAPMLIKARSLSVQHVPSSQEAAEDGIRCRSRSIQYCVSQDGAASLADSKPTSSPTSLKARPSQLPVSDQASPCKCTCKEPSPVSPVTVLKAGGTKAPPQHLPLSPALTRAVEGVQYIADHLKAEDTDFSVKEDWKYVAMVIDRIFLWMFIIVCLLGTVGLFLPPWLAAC
Sequence of neuronal nicotinic acetylcholine receptors (P12390 25-500): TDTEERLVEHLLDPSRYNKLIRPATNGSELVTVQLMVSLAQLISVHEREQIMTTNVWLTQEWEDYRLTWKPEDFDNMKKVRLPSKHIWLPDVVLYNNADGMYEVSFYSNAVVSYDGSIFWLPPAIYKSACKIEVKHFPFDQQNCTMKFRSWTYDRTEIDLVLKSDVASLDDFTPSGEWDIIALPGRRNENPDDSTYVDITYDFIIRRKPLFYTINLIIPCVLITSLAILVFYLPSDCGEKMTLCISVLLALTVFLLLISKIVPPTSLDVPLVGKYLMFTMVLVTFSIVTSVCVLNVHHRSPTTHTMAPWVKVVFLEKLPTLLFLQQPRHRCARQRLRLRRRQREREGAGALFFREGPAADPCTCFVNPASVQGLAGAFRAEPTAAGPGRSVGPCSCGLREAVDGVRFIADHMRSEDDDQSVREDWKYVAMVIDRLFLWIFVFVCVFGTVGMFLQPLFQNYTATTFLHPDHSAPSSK

Row | Molecule | Ki [1] | Analgesic MED (μmol/kg) [2] | melting point | minimal effective dose ([2]; Mus musculus, ip, 0.5 h, read-out: Analgesic MED)
1 | 5-[(S)-2-amino-1-propyloxy]-2-chloro-3-(4-vinylpyridinyl)pyridine p-toluenesulfonic acid [Example 13] | 0.0761 nM | – | – | –
2 | C[C@@H](COc1cnc(Cl)c(C=Cc2ccncc2)c1)N(C)C (single isomer, unassigned) [Example 14] | – | * (no effect at 62) | 79 to 81 °C | –
3 | C[C@H](COc1cnc(Cl)c(C=Cc2ccncc2)c1)N(C)C (single isomer, unassigned) [Example 39] | – | * (no effect at 62) | 81 to 83 °C | –
4 | CN(C)[C@H](COc1cnc(Cl)c(C=Cc2ccncc2)c1)Cc1ccccc1 [Example 24, 5-[(S)-2-N-dimethyl-amino-3-phenyl-1-propyloxy]-2-chloro-3-(4-vinylpyridinyl)pyridine di-p-toluenesulfonic acid] | – | – | – | > 62 µmol/kg
5 | C[C@@H](COc1ccc(Cl)nc1)N(C)C.Cc1ccc(S(=O)(=O)O)cc1 [Example 27, 5-[(S)-2-dimethylamino-1-propyloxy]-2-chloro pyridine p-toluenesulfonic acid] | – | * (no effect at 62) | – | –

Reference: patent US6656958B2, “Substituted pyridine compounds useful for controlling chemical synaptic transmission” (Abbott Laboratories, priority 2000, dated 2003)
